21 compounds from patent US20110053947A1, “Arylchalcogenoarylalkyl-substituted imidazolidine-2,4-diones, process for preparation thereof, medicaments comprising these compounds and use thereof” (SANOFI-AVENTIS, priority 2008, published 2011) can be followed below.

The target of test [1] is T1, CHO-K1/cannabinoid CB1 (hCB1R) (Homo sapiens, UniProt P21554).
T1 construct: expressed in transfected cells; host or cells: CHO-K1
The test is described as follows: Binding to the CB1 receptor ([3H]-SR141716A displacement). Particulars: [3H]-SR141716A 0.5 nM; Ki from IC50 and Kd by Cheng-Prusoff; average of double determination; read-out: hCB1R; Bindung Ki. As for the experimental part: Binding to the CB 1 Receptor:
Test compounds: The compounds (3 μl, 10 mM, 100% DMSO), pipetted into 96-well PP microtiter plates, were diluted with 27 μl of 100% DMSO (dimethyl sulfoxide). Proceeding from this solution, further 3-fold dilution steps were undertaken by transferring 10 μl in each case to a new PP microtiter plate and adding a further 20 μl of 100% DMSO. In each case 6 μA of these solutions were transferred into new 96-well PP microtiter plates and made up with 144 μl of assay buffer. The end concentrations ranged from 10 μM to 0.005 μM. Negative control: AM 251, dissolved in assay buffer with 1% DMSO, was added to the dilution series in the microtiter plates as a control. The end concentration was 1 μM. Blank control: assay buffer with 1% DMSO was added to the dilution series of the microtiter plates as a blank control.
Summary of the Assay Parameters:
The values were calculated using the corrected raw data.
The values reported were obtained as average values of a double determination. The IC50 values were calculated from the measurements with the program Xlfit, formula 205. Ki values were obtained from the IC50 and Kd values utilizing the Cheng-Prusoff equation: […]
Literature: Cheng, Y.-C., and Prusoff, W. H. (1973) Biochem. Pharmacol 22, 3099-3108 Results: Ki values of example compounds; Table 2: […]

Test [2] deals with T2, cannabinoid 2 receptor (hCB2R) (Homo sapiens, UniProt P34972).
T2 construct: expressed in transfected cells; host or cells: HEK293
T2 sequence (P34972 whole entry): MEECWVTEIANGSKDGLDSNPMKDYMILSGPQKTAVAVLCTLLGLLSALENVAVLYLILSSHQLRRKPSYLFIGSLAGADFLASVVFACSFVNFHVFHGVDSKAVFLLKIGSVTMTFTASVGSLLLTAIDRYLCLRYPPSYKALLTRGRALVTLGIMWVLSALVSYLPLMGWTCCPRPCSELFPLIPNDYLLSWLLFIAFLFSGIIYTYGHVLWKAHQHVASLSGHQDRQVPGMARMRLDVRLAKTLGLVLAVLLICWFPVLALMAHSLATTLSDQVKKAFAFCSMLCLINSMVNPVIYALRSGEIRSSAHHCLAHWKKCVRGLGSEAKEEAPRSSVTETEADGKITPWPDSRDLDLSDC
The test is described as follows: In vitro functional assay with recombinant cells (FLIPR), CB2. It counts as cell-based. Particulars: recombinant HEK293 cells expressing CB2 and G-protein; intracellular Ca2+ change after reference agonist, 20 min preincubation; read-out: hCB2R: FLIPR; IC50. The procedure: (§1) In vitro functional assays with recombinant cells:
(§2) Function-testing assays were performed by means of the FLIPR technique (“Fluorometric Imaging Plate Reader”, Molecular Devices Corp.).
(§3) To this end, ligand-induced changes in the intracellular concentration of Ca^2+ in recombinant HEK293 cells, which expressed both a cannabinoid receptor (CB1 or CB2) and G-protein Galphal6, were determined. For the studies, cells were sown into 96-well microtiter plates (60 000 cells/well) and left to grow overnight. The medium was removed and the cells were incubated in buffer which contained the fluorescent dye Fluo-4. After this loading with dye, the cells were washed, test substance was added dissolved in buffer, the mixture was incubated for 20 minutes, a known cannabinoid receptor agonist as a reference agonist was added in buffer and, finally, the changes in the intracellular Ca^2+ concentration were measured in the FLIPR unit.

The target in test [3] is T3, cannabinoid 1 receptor (hCB1R) (Homo sapiens, UniProt P21554).
T3 construct: expressed in transfected cells; host or cells: HEK293
T3 sequence (P21554 whole entry): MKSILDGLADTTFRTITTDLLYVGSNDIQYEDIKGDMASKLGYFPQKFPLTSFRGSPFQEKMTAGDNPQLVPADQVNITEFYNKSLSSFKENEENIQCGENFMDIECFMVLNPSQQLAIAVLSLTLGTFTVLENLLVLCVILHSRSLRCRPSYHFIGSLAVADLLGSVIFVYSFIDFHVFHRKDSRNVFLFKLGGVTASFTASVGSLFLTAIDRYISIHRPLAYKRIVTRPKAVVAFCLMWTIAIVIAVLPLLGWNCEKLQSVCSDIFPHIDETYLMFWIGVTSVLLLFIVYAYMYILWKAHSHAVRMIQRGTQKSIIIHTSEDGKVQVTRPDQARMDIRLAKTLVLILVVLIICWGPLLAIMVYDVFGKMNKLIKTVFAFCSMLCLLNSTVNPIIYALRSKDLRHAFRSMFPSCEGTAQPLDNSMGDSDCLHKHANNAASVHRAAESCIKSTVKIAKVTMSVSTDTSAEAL
The test can be described thus: In vitro functional assay with recombinant cells (FLIPR), CB1. It counts as cell-based. Particulars: intracellular Ca2+ change after reference agonist, 20 min preincubation. The procedure: as §1, §2, §3
Results were presented as the percentage change relative to the control (0%: analogous experiment without test substance and without reference agonist, i.e. only with buffer; 100%: analogous experiment without test substance, but with reference agonist in excess), and used to calculate dose/action curves, and IC50 values were determined.
The values of the functional assay compared to the cannabinoid 1 receptor including illustrative selectivities compared to the cannabinoid 2 receptor can be taken from table 1 which follows.

The mark [4] stands for this setting: recombinant HEK293 cells expressing CB1 and G-protein, read-out: hCB1R: FLIPR, IC50.
[5] abbreviates: hCB1R: FLIPR, IC50, recombinant HEK293 cells expressing CB1 and G-protein.

Counter-ions that a name gives are not always drawn. Like-named read-outs stand apart in the source and are kept apart here. Bounds are passed on as bounds.

T1 sequence (P21554 whole entry): as above

With `CC1(C)C(=O)N(c2ccc(C#N)c(C(F)(F)F)c2)C(=O)N1Cc1ccc(F)cc1NC(=O)Nc1cc(Cl)nc(Cl)c1` [Example 21, 1-{2-[3-(4-cyano-3-trifluoromethylphenyl)-5,5-dimethyl-2,4-dioxoimidazolidin-1-ylmethyl]-5-fluorophenyl}-3-(2,6-dichloropyridin-4-yl)urea], in test [1], the Ki stood at 34 nM.

For `CC1(C)C(=O)N(c2ccc(C#N)c(C(F)(F)F)c2)C(=O)N1Cc1ccccc1NC(=O)Nc1ccccc1` [Example 9, 1-{2-[3-(4-cyano-3-trifluoromethylphenyl)-5,5-dimethyl-2,4-dioxoimidazolidin-1-ylmethyl]phenyl}-3-phenylurea], in test [1], the Ki was 32 nM.

On to `CC1(C)C(=O)N(c2ccc(C#N)c(C(F)(F)F)c2)C(=O)N1Cc1ccccc1NC(=O)Nc1ccc(S(=O)(=O)O)cc1` [Example 2, 4-(3-{2-[3-(4-cyano-3-trifluoromethylphenyl)-5,5-dimethyl-2,4-dioxoimidazolidin-1-ylmethyl]phenyl}ureido)benzenesulfonic acid], for which the IC50 in test [2] is greater than 10 µM; in test [3] (setting [4]), 220 nM.

`COC(=O)c1ccc(NC(=O)Nc2cc(F)ccc2CN2C(=O)N(c3ccc(C#N)c(C(F)(F)F)c3)C(=O)C2(C)C)nc1` [Example 42, methyl 6-(3-{2-[3-(4-cyano-3-trifluoromethylphenyl)-5,5-dimethyl-2,4-dioxoimidazolidin-1-ylmethyl]-5-fluorophenyl}ureido)nicotinate]: in test [1], the Ki turned out to be 35 nM.

Regarding `CC1(C)C(=O)N(c2ccc(C#N)c(C(F)(F)F)c2)C(=O)N1Cc1ccccc1NC(=O)Nc1ccc(C#N)cc1` [Example 6, 1-(4-cyanophenyl)-3-{2-[3-(4-cyano-3-trifluoromethylphenyl)-5,5-dimethyl-2,4-dioxoimidazolidin-1-ylmethyl]phenyl}urea], the IC50 in test [2] is greater than 10 µM; in test [3] (setting [5]) it was 11 nM.

Take `C[S+]([O-])c1ccc(NC(=O)Nc2ccccc2CN2C(=O)N(c3ccc(C#N)c(C(F)(F)F)c3)C(=O)C2(C)C)cc1` (centres unmarked) [Example 12, 1-{2-[3-(4-cyano-3-trifluoromethylphenyl)-5,5-dimethyl-2,4-dioxoimidazolidin-1-ylmethyl]phenyl}-3-(4-methanesulfinylphenyl)urea]: the Ki in test [1] worked out at 11 nM.

For `CC1(C)C(=O)N(c2ccc(C#N)c(C(F)(F)F)c2)C(=O)N1Cc1ccccc1NC(=O)Nc1ccc(F)cc1F` [Example 7, 1-{2-[3-(4-cyano-3-trifluoromethylphenyl)-5,5-dimethyl-2,4-dioxoimidazolidin-1-ylmethyl]phenyl}-3-(2,4-difluorophenyl)urea], in test [1], the Ki stood at 73 nM.

Consider `CCS(=O)(=O)c1ccc(NC(=O)Nc2cc(F)ccc2CN2C(=O)N(c3ccc(C#N)c(C4CC4)c3)C(=O)C2(C)C)cc1` [Example 45, 1-{2-[3-(4-Cyano-3-cyclopropylphenyl)-5,5-dimethyl-2,4-dioxoimidazolidin-1-ylmethyl]-5-fluorophenyl}-3-(4-ethanesulfonylphenyl)urea], for which the Ki in test [1] was found to be 6 nM.

For the compound `CC1(C)C(=O)N(c2ccc(F)c(C(F)(F)F)c2)C(=O)N1Cc1ccc(F)cc1NC(=O)Nc1ccc(N)cc1` [Example 23, 1-(4-Aminophenyl)-3-{5-fluoro-2-[3-(4-fluoro-3-trifluoromethylphenyl)-5,5-dimethyl-2,4-dioxoimidazolidin-1-ylmethyl]phenyl}urea hydrochloride], in test [1], the Ki came out at 17 nM.

Regarding `CC1(C)C(=O)N(c2ccc(F)c(C(F)(F)F)c2)C(=O)N1Cc1ccc(F)cc1NC(=O)Nc1ccc(S(N)(=O)=O)cc1` [Example 24, 4-(3-{5-fluoro-2-[3-(4-fluoro-3-trifluoromethylphenyl)-5,5-dimethyl-2,4-dioxoimidazolidin-1-ylmethyl]phenyl}ureido)benzenesulfonamide], the Ki in test [1] amounted to 9 nM.

Take `CC1(C)C(=O)N(c2ccc(C#N)c(C(F)(F)F)c2)C(=O)N1Cc1ccc(F)cc1NC(=O)Nc1ccc(C(=O)O)cc1` [Example 18, 4-(3-{2-[3-(4-Cyano-3-trifluoromethylphenyl)-5,5-dimethyl-2,4-dioxoimidazolidin-1-ylmethyl]-5-fluorophenyl}ureido)benzoic acid]: the Ki in test [1] came to 68 nM.

In the case of `CC1(C)C(=O)N(c2ccc(C#N)c(C(F)(F)F)c2)C(=O)N1Cc1ccccc1NC(=O)Nc1cccc(C#N)c1` [Example 8, 1-(3-cyanophenyl)-3-{2-[3-(4-cyano-3-trifluoromethylphenyl)-5,5-dimethyl-2,4-dioxoimidazolidin-1-ylmethyl]phenyl}urea], the IC50 is greater than 10 µM in test [2] and 35 nM in test [3] (setting [5]).

`COC(=O)CS(=O)(=O)c1ccc(NC(=O)Nc2cc(F)ccc2CN2C(=O)N(c3ccc(C#N)c(C4CC4)c3)C(=O)C2(C)C)cc1` [Example 46, Methyl [4-(3-{2-[3-(4-cyano-3-cyclopropylphenyl)-5,5-dimethyl-2,4-dioxoimidazolidin-1-ylmethyl]-5-fluorophenyl}ureido)benzenesulfonyl]acetate]: the Ki in test [1] was determined as 7 nM.

Regarding `CC1(C)C(=O)N(c2ccc(C#N)c(C(F)(F)F)c2)C(=O)N1Cc1ccc(F)cc1NC(=O)Nc1ccnc(O)c1` [Example 43, 1-{2-[3-(4-cyano-3-trifluoromethylphenyl)-5,5-dimethyl-2,4-dioxoimidazolidin-1-ylmethyl]-5-fluorophenyl}-3-(2-hydroxypyridin-4-yl)urea], the IC50 in test [3] (setting [4]) amounted to 27 nM. Moreover, the Ki in test [1] was 17 nM.

For `CC1(C)C(=O)N(c2ccc(C#N)c(C(F)(F)F)c2)C(=O)N1Cc1ccccc1NS(=O)(=O)Cc1ccc(F)cc1F` [Example 15, N-{2-[3-(4-cyano-3-trifluoromethylphenyl)-5,5-dimethyl-2,4-dioxoimidazolidin-1-ylmethyl]phenyl}-C-(2,4-difluorophenyl)methanesulfonamide], the Ki in test [1] is 58 nM.

Take `CCOP(=O)(OCC)c1ccc(NC(=O)Nc2cc(F)ccc2CN2C(=O)N(c3ccc(F)c(C(F)(F)F)c3)C(=O)C2(C)C)cc1` [Example 32, Diethyl [4-(3-{5-fluoro-2-[3-(4-fluoro-3-trifluoromethylphenyl)-5,5-dimethyl-2,4-dioxoimidazolidin-1-ylmethyl]phenyl}ureido)phenyl]phosphonate]: the Ki in test [1] stood at 40 nM.

Consider `COC(=O)CSc1ccc(NC(=O)Nc2cc(F)ccc2CN2C(=O)N(c3ccc(C#N)c(C(F)(F)F)c3)C(=O)C2(C)C)cc1` [Example 49], for which, in test [3] (setting [4]), the IC50 was 2 nM. The Ki in test [1] was determined as 11 nM.

With `COC(=O)c1ccc(NC(=O)Nc2cc(F)ccc2CN2C(=O)N(c3ccc(F)c(C(F)(F)F)c3)C(=O)C2(C)C)cc1` [Example 59, methyl 4-(3-{5-fluoro-2-[3-(4-fluoro-3-trifluoromethylphenyl)-5,5-dimethyl-2,4-dioxoimidazolidin-1-ylmethyl]phenyl}ureido)benzoate], in test [1], the Ki turned out to be 29 nM.

For the compound `CC1(C)C(=O)N(c2ccc(C#N)c(C(F)(F)F)c2)C(=O)N1Cc1ccccc1NC(=O)Nc1ccc(S(C)(=O)=O)cc1` [Example 13, 1-{2-[3-(4-cyano-3-trifluoromethylphenyl)-5,5-dimethyl-2,4-dioxoimidazolidin-1-ylmethyl]phenyl}-3-(4-methanesulfonylphenyl)urea], in test [1], the Ki came to 7 nM.

Consider `COc1cc(CN2C(=O)N(c3ccc(F)c(C(F)(F)F)c3)C(=O)C2(C)C)c(NC(=O)Nc2ccc(S(N)(=O)=O)cc2)cc1OC` [Example 68, 4-(3-{2-[3-(4-fluoro-3-trifluoromethylphenyl)-5,5-dimethyl-2,4-dioxoimidazolidin-1-ylmethyl]-4,5-dimethoxyphenyl}ureido)benzenesulfonamide], for which the IC50 in test [3] (setting [4]) was 39 nM.

On to `CC1(C)C(=O)N(c2ccc(F)c(C(F)(F)F)c2)C(=O)N1Cc1ccc(F)cc1NC(=O)Nc1ccc(C(=O)NS(=O)(=O)Cc2ccccc2)cc1` [Example 64, N-[4-(3-{5-fluoro-2-[3-(4-fluoro-3-trifluoromethylphenyl)-5,5-dimethyl-2,4-dioxoimidazolidin-1-ylmethyl]phenyl}ureido)benzoyl]-C-phenylmethanesulfonamide], for which the IC50 in test [3] (setting [4]) is 39 nM.
